One may read the inhibition as the percentage by which the read-out fell short of the control. Low values mean a response near the control, high ones a response far below the control. By IC50 is commonly meant the point on the concentration scale where inhibition reaches its midpoint. High values mean lower potency, low ones higher potency. In general, % inhibition refers to the change of the read-out against control, counted positive when it falls. Low values mean a response near the control, high ones a response far below the control.

The source of these data is US5565488A, “Oxalylamino-benzofuran- and benzothienyl-derivatives” (Bayer Aktiengesellschaft, priority 1994, dated 1996).

The test system of assay [1] is human PMN. The assay is described as follows: Inhibition of FMLP-stimulated production of superoxide radical anions. Type of assay: cell-based. The following applies: Neutrophil, human neutrophils; for IC50: 4×10^-8 M FMLP. The protocol:
1. Preparation of human PMN
Blood was taken from healthy subjects by venous puncture and neutrophils were purified by dextran sedimentation and resuspended in the buffered medium.
2. Inhibition of FMLP-stimulated production of superoxide radical anions.
Neutrophils (2.5×10^5 ml^-1) were mixed with cytochrome C (1.2 mg/ml) in the wells of a microtitre plate. Compounds according to the invention were added in dimethyl sulphoxide (DMSO). Compound concentration ranged from 2.5 nM to 10 μM, the DMSO concentration was 0.1% v/v in all wells. After addition of cytochalasin b (5 μg×ml^-1) the plate was incubated for 5 min at 37° C. Neutrophils were then stimulated by addition of 4×10^-8 M FMLP and superoxide generation measured as superoxide dismutase inhibitable reduction of cytochrome C by monitoring the OD550 in a Thermomax microtitre plate spectrophotometer. Initial rates were calculated using a Softmax kinetic calculation programme. Blank wells contained 200 units of superoxide dismutase.
The inhibition of superoxide production was calculated as follows: [formula] Rx=Rate of the well containing the compound according to the invention. Ro=Rate in the control well.
Rb=Rate in the superoxide dismutase containing blank well.

In assay [2] the test system is FMLP-induced skin oedema. The assay is described as follows: Effect of intravenously administered compounds on the FMLP-induced skin oedema guinea pigs. The format is in vivo. The following applies: i.v., 1 mg/kg, guinea pig. The protocol:
5. Effect of intravenously administered compounds on the FMLP-induced skin oedema guinea pigs
Guinea pigs (600-800 g) were anaesthetized with pentobarbitone sodium (40 mg/kg, i.p.) and injected (i.v.) with a 0.5 ml mixture of pentamine sky blue (5% W/V) and ^125 I-HSA (1 μli/animal). 10 minutes later 3 intradermal injections of FMLP (10 μg/site), 1 injection of histamine (1 μg/site) and 1 injection of vehicle (100 μl of 0.2% DMSO V/V in Hanks Buffered salt solution) were made on the left hand side of the animal (preinjection sites). 5 minutes later the drug (1 ml/kg) or the vehicle (50% PEG 400 V/V in distilled water, […]) was administered (i.v.). 10 minutes later an identical pattern of interadermal injections was made on the opposite flank of the animal (post-injection sites). These responses were allowed-to develop for 15 minutes before the animal was sacrificed and a blood sample taken.
Skin sites and plasma samples were counted for 1 minute on a gamma counter an the degree of oedema calculated as μl plasma/skin site. Statistical analysis was done by a paired t-test on the mean of the 3 preinjection site values of μl plasma obtained for FMLP/animal. The percentage inhibition of drug or vehicle was calculated as follow

In assay [1], `COC(=O)CCc1c(C(=O)c2ccc(Cl)cc2)oc2cc(NC(=O)C(=O)OC)ccc12` [Example 1, 3-[2-(4-Chlorobenzoyl)-6-(2-methoxy-2-oxo-acetamido)-3-benzofuranyl]propanoic acid, methylester] registered an inhibition at 10 µM of 62% and an IC50 of 170 nM.

For `CCOC(=O)C(=O)Nc1ccc2c(CCC(=O)OC)c(C(=O)c3ccc(C)cc3)oc2c1` [Example 2], in assay [2], the “% inhibition” value came to 47%. In assay [1], `CCOC(=O)C(=O)Nc1ccc2c(C)c(C(=O)c3ccc(C)cc3)oc2c1` [Example 6] had an inhibition at 10 µM of 67% and an IC50 of 110 nM.

On to `CCOC(=O)C(=O)Nc1ccc2c(CCC(=O)OC)c(C(=O)c3ccc(Cl)cc3)oc2c1` [Example 7], for which, in assay [1], at 10 µM the inhibition was 86% and half-maximal inhibition (IC50) required 900 nM. For `CCOC(=O)C(=O)Nc1ccc2c(CCC(=O)OC)c(C(=O)c3ccncc3)oc2c1` [Example 344] the same measures were 81% and 200 nM.
